This note sets out measurements from patent US6566307B1, “α,α′-substituted n-alkyl-3-alkenylbenzoyl-pyrazol-derivatives” (BASF Aktiengesellschaft, priority 1999, dated 2003).

Holding throughout (assay): Greenhouse herbicidal activity, post-emergence method
Conditions in all cases: scale 0 to 100 (100 = complete destruction, 0 = no damage)

Experiment [1] deals with ECHCG. The experiment is classed as in vivo, barnyardgrass. The source says:
(§1) The herbicidal activity of the compounds of the formula I was shown by greenhouse experiments: The culture containers used are plastic pots containing loamy sand with approximately 3.0% of humus as the substrate. The seeds of the test plants are sown separately for each species. For the post-emergence treatment, the test plants were first grown to a height of 3 to 15 cm, depending on the plant form, and only then treated with the active compounds which have been suspended or emulsified in water. The test plants were for this purpose either sown directly and grown in the same containers, or they were first grown separately as seedlings and transplanted into the test containers a few days prior to treatment. The application rate for the post-emergence treatment was 0.25, 0.125 or 0.0625 kg of active substance (a.s.)/ha. Depending on the species, the plants were kept at 10-25° C. or 20-35° C. The test period extended over 2 to 4 weeks. During this time, the plants are tended, and their response to the individual treatments was evaluated. The evaluation was carried out using a scale from 0 to 100. 100 means no emergence of the plants, or complete destruction of at least the aerial parts and 0 means no damage, or normal course of growth. The plants used in the greenhouse experiments were composed of the following species: [table]

Experiment [2] has as its system SINAL. The experiment is classed as in vivo, white mustard.
Description: as §1

For experiment [3], the system named is POLPE. The experiment is classed as in vivo, ladysthumb.
Description: as §1

Experiment [4] concerns CHEAL. The experiment is classed as in vivo, lambsquarter.
Description: as §1

Experiment [5] concerns SETVI. The experiment is classed as in vivo, green foxtail.
Description: as §1

Setting [6] is: application rate 0.0625 kg of a.s./ha.
Setting [7] is: application rate 0.125 kg of a.s./ha.

`C=Cc1c(S(C)(=O)=O)ccc(C(=O)C2C=NN(C(C)C)C2O)c1OC` (stereo not shown): the “Herbicidal activity when used by the post-emergence method in a greenhouse” value in experiment [1] (setting [6]) stood at 95; in experiment [1] (setting [7]) it was 95; in experiment [2] (setting [6]), 98; in experiment [2] (setting [7]) it was 98; in experiment [3] (setting [6]), 100; in experiment [3] (setting [7]), 100. The “Herbicidal activity when used by the post-emergence method in a greenhouse” value in experiment [4] (setting [6]) stood at 100; in experiment [4] (setting [7]), 100; in experiment [5] (setting [6]), 95; in experiment [5] (setting [7]), 95.
